These results are taken from patent US20070207946A1, “Dipeptidyl peptidase IV inhibitors and their uses for lowering blood pressure levels” (priority 2001, published 2007).

The assay deals with diabetic Zucker rats. The assay can be described thus: Dose escalation study in fatty Zucker rats, oral glucose tolerance test. As to conditions: 2 g/kg glucose. In kind it is in vivo, rat. The procedure:
N=30 male Zucker rats (fa/fa), mean age 11 weeks (5-12 weeks), mean body weight 350 g (150-400 g), were purchased from Charles River (Sulzfeld, Germany).
After delivery they were kept for >12 weeks until nearly all fatty Zucker rats had the characteristics of manifest diabetes mellitus. A group of N=8 animals were recruited for testing three escalating doses of glutaminyl pyrrolidine vs. placebo (saline).
Placebo (1 ml saline, 0.154 mol/l) or escalating doses of glutaminyl pyrrolidine (5, 15 and 50 mg/kg b.w.) were administered to groups of N=8 fatty Zucker rats. 375 mg of glutaminyl pyrrolidine were dissolved in 1000 μl DMSO (E. Merck, Darmstadt; Germany [Dimethyl sulfoxide p.a.]). 10 ml saline were added and 1 ml aliquots, each containing 34.09 mg of glutaminyl pyrrolidine, were stored at −20° C. For preparation of the test substance, dose dependent aliquots were diluted in saline.
After overnight fasting, placebo or test substance were administered to the fatty Zucker rats via feeding tube orally (15 G, 75 mm; Fine Science Tools, Heidelberg, Germany) at −10 min An oral glucose tolerance test (OGTT) with 2 g/kg b.w. glucose (40% solution, B. Braun Melsungen, Melsungen, Germany) was administered at ±0 min via a second feeding tube. Venous blood samples from the tail veins were collected at −30 min, −15 min, ±0 min and at 5, 10, 15, 20, 30, 40, 60, 90 and 120 min into 20 μl glass capillaries, which were placed in standard tubes filled with 1 ml solution for blood glucose measurement.
Glucose levels were measured using the glucose oxidase procedure (Super G Glucose analyzer; Dr. Müller Gerätebau, Freital, Germany).
Statistical evaluations and graphics were performed with PRISM® 3.02 (GraphPad Software, Inc.). All parameters were analysed in a descriptive manner including mean and SD.
After delivery they were kept for >12 weeks until nearly all fatty Zucker rats had the characteristics of manifest diabetes mellitus. […]
Glucose levels were measured using the glucose oxidase procedure (Super G Glucose analyzer; Dr. Möller Gerätebau, Freital, Germany).

Consider `NC(=O)CCC(N)C(=O)N1CCCC1` (stereo not drawn) [Gln-Pyrr, glutaminyl pyrrolidine], for which the “glucose tolerance (OGTT)” value (5 mg/kg b.w. oral) is “limited improvement”. Besides, the “elevated blood glucose levels and glucose tolerance (OGTT)” value by setting is: (15 mg/kg oral) “Significant lowering”; (50 mg/kg b.w. oral) “Significant lowering”.
